Data taken from EP0152542A1, “Pyrrol-3-carboxylic acids having central analgesic activity” (POLI INDUSTRIA CHIMICA S.p.A., priority 1983, dated 1985).
Read-outs that look alike come from different tables or passages of the source.

Legend:
Male albino mice = assay: Hot plate test (thermostatized plate at 55°C, reaction time to painful stimulus); type: in vivo; conditions: Mus musculus
[1] = Acute toxicity per os in the mouse (LD50 at the 14th observation day); conditions: in vivo, po
Description: (§1) The analgesic activity of the compounds of for mula I, administered by the oral route has been determined by means of the following tests: • - Phenylquinone test in mice (Hendershot and Forsa ith - J. Pharmacol. Exp. Ther. 123, 237 (1959)) • - Hot plate test - Male albino mice, treated with increasing doses of the compound under test, are placed on a thermostatized plate at 55°C. The time necessary for the mouse to react to the painful stimulus is then measured. An effective dose 50 (ED50) is defined as the dose inducing a 50% increase of the reaction time, with respect to control animals. • - The acute toxicity per os has been studied in the mouse and in the rat and expressed as LD50 at the 14th observation day.

mice = assay: Phenylquinone test in mice (analgesic activity); type: in vivo; conditions: Mus musculus
Description: as §1

[2] = Acute toxicity per os in the rat (LD50 at the 14th observation day); conditions: in vivo, po
Description: as §1

[3] = system: cyclooxygenase and the prostaglandinsynthetase; conditions: known compound, background statement; cited from earlier work
[4] = sc, S.C., ED50 = dose inducing a 50% increase of the reaction time versus controls, plate at 55°C, read-out: HOT PLATE ED50 S.C. MICE
[5] = mice, oral, read-out: PHENYLQUINONE ED50 OS

Compound	ED50 (Male albino mice; [4])	LD50 at 336 h ([1]; read-out: LD50 MICE OS)	ED50 (mice; [5])	LD50 at 336 h [2]	LD50 at 336 h ([1]; mice, per os, 14th observation day, read-out: LD50 MICE OS)	LD50 at 336 h ([2]; per os, 14th observation day)	inhibits the cyclooxygenase and the prostaglandinesynthetase [3]	ED50 (Male albino mice; comparison compound, route not given, read-out: ED50 hot plate)	LD50 at 336 h ([1]; comparison compound, per os, read-out: LD50 mouse per os)	ED50 (mice; po, read-out: ED50 phenylquinone)
Cc1c(C(=O)O)c(C)n(Cc2ccccc2Cl)c1C(=O)c1ccc(Cl)cc1	5.5 mg/kg	1200 mg/kg	10.8 mg/kg	> 1600 mg/kg						
Cc1c(C(=O)O)c(C)n(Cc2ccccc2)c1C(=O)c1ccc(Cl)cc1	4.8 mg/kg	1500 mg/kg	7.6 mg/kg	> 1600 mg/kg						
CCCCn1c(C)c(C(=O)O)c(C)c1C(=O)c1ccc(Cl)cc1 [R=C4H9, R1=Cl, R2=H, R3=H]	2.9 mg/kg	1300 mg/kg	6.3 mg/kg	> 1600 mg/kg						
Cc1ccc(C(=O)c2c(C)c(C(=O)O)c(C)n2C)cc1 [R=CH3, R1=CH3, R2=H, R3=H]	> 10 mg/kg	1400 mg/kg	10 mg/kg	> 1600 mg/kg						
Cc1c(C(=O)O)c(C)n(C)c1C(=O)c1ccc(Cl)c(Cl)c1 [R=CH3, R1=Cl, R2=Cl, R3=H]	4.7 mg/kg	800 mg/kg	7.5 mg/kg	> 1600 mg/kg						
Cc1c(C(=O)O)c(C)n(C)c1C(=O)c1ccc(Cl)cc1Cl [R=CH3, R1=Cl, R2=H, R3=Cl, 1,2,4-Trimethyl-5-(2,4-dichlorobenzoyl)-pyrrol-3-carboxylic acid]	5.7 mg/kg		10.9 mg/kg		1400 mg/kg	1700 mg/kg				
Cc1c(C(=O)O)c(C)n(C)c1C(=O)c1ccc(Cl)cc1 [R=CH3, R1=Cl, R2=H, R3=H, reference compound]	2.3 mg/kg	800 mg/kg	4.6 mg/kg	> 1600 mg/kg						
COc1ccc(C(=O)c2c(C)c(C(=O)O)c(C)n2C)cc1 [R=CH3, R1=OCH3, R2=H, R3=H]	7.6 mg/kg	> 1600 mg/kg	8.4 mg/kg	> 1600 mg/kg						
Cc1cc(CC(=O)O)n(C)c1C(=O)c1ccc(Cl)cc1 [Zomepirac, 5-(p-chlorobenzoyl)-1,4-dimethyl-pyrrol-2-acetic acid]							inhibits			
COc1ccc2c3c1O[C@H]1[C@@H](O)C=C[C@H]4[C@@H](C2)N(C)CC[C@@]341.Cl [codeine hydrochloride, reference compound]								25 mg/kg	300 mg/kg	5.6 mg/kg
